Structures can show the parent of a compound that is named as a salt.
Legend:
Type in all cases: physicochemical
[1] = Flowability, Jenike and Johanson Sifting Segregation tester (time for 200 g to fall through hopper orifice); settings: 200 g material, hydrochloride
Method: The flowability of the equant-shaped crystals of memantine was measured using a Jenike and Johanson […] Segregation tester (Jenike and Johanson, Tyngsboro, Mass.). The time taken for 200 g of material to fall through the circular orifice of the hopper was measured. Two different hoppers were used: a shallow angle cone (Hopper A, 35° from horizontal) and a steep angle cone (Hopper B, 75° from horizontal). […] See, ASTM Standard D6941-03, and A. Alexander et al., Pharmaceutical Technology, Yearbook 2000, pp. 6-21.

[2] = Angle of repose, Hosakawa Micron powder tester; settings: hydrochloride
Method: For pharmaceutical powders, a lower angle of repose value indicates better flow characteristics. The angle of repose was measured using a Hosakawa Micron powder tester, Model PT-N (Hosokawa Micron Powder systems, Summit, N.J.) using the instructions provided by the vendor. Also see Pharmaceutical Dosage Forms, Tablets, Volume 1, Herbert A. Lieberman, Leon Lachman, Joseph B. Schwartz, 1989, 2nd Ed.

[3] = Bulk density and tap density, Varian Tapped Density tester; settings: hydrochloride
Method: Bulk Density and Apparent Density after Tamping (Tap Density)
The bulk density and apparent density were measured using a Varian Tapped Density tester (Varian Inc.,) using the instructions provided by the vendor. Also see USP 29 (Tap-Bulk-Density).

[4] = Particle size distribution by laser diffraction; settings: equant: Helos BF with Rodos; needle: Mastersizer 2000; hydrochloride
Method: The particle size distribution (average d90, d50 and d10 values) of the equant-shaped crystals of memantine was measured by Laser Diffraction technique using a Helos BF with Rodos instrument (Sympatec Inc, Lawrenceville, N.J.). The particle size distribution of the needle-shaped crystals of memantine was measured using a Mastersizer 2000 instrument (Malvern Instruments Limited, Worcestershire, UK).

[5] = Aspect ratio by scanning electron microscopy; settings: ratio of maximum length to minimum width; hydrochloride
Description: The aspect ratio refers to the ratio of the maximum length of a crystal to its minimum width. At an aspect ratio of 1, a crystal has an isometric crystal habit. With the aspect ratio decreasing below 1, the crystal habit becomes more and more plate-like. In contrast, when the aspect ratio increases more and more above 1, the crystal approaches a needle-like crystal habit. In accordance with the present invention, cubic-shaped crystals of memantine hydrochloride have an aspect ratio of preferably below about 5, such as, below about 3 (3.0), e.g., below about 2 (2.0). The lower limit of the aspect ratio is not critical. The aspect ratio is determined by means of scanning electron microscopy (SEM). The sample is spread onto a pure aluminum support and subsequently sputter-coated with a thin layer of Pd/Au (thickness in the nanometer range; sputter coater SCD 030 (Balzers)). Using a JSM 6400 Scanning Electron Microscope (JEOL, Japan) at an acceleration voltage of 20 keV and a working distance of 15 mm, SEM images are taken at 150-fold magnification. Electronic filtering and thresholding is used to improve the separation of particles in binary images from the background. For image analysis, ANALYSIS software version 5.0 (SIS, Muenster, Germany) is used. […]

[6] = Hopper A (shallow angle cone, 35° from horizontal)
[7] = Hopper B (steep angle cone, 75° from horizontal)

| Compound | Flowability [1, 6] | Flowability ([1]; Hopper A (shallow angle cone, 35° from horizontal), listed as equant-shaped crystals) | Flowability [1, 7] | Flowability ([1]; Hopper B (steep angle cone, 75° from horizontal), listed as equant-shaped crystals) | Angle of Repose [2] | Bulk Density [3] | Compressibility Index [3] | Tap Density [3] | PSD d10 [4] | PSD d50 [4] | PSD d90 [4] | Aspect Ratio [5] | Flowability ([1]; Hopper A (shallow angle cone, 35° from horizontal), listed as needle-shaped crystals) | Flowability ([1]; Hopper B (steep angle cone, 75° from horizontal), listed as needle-shaped crystals) |
| --- | --- | --- | --- | --- | --- | --- | --- | --- | --- | --- | --- | --- | --- | --- |
| CC12CC3CC(C)(C1)CC(N)(C3)C2 [Equant-shaped crystals of Memantine HCl, memantine hydrochloride] | 38.3 g/s | about 38 g/s | 13.6 g/s | about 14 g/s | 43.1 ° | 0.51 g/cc | 16 | 0.61 g/cc | 10 μm | 205 μm | 376 μm | 1.6 |  |  |
| CC12CC3CC(C)(C1)CC(N)(C3)C2 [Needle-shaped crystals of Memantine HCl, memantine hydrochloride] | Does not flow |  | Does not flow |  | 66.2 ° | 0.30 g/cc | 40 | 0.50 g/cc | 18.8 μm | 113.8 μm | 1229.4 μm | 11.4 | do not flow | do not flow |

Source: patent US20090247644A1, “MEMANTINE FORMULATIONS” (FOREST LABORATORIES HOLDINGS LIMITED, priority 2008, published 2009)
